# Measurements: ChEMBL document CHEMBL3994561 (Medchemcomm, 2016)
# Active and inactive are the calls of the source. The rule behind the calls is not given here.
# Tested on: MCF7
# Assay: Induction of apoptosis in human MCF7 cells assessed as viable cells at 12.76 +/- 0.46 uM after 24 hrs by annexin V-FITC/propidium iodide staining-based flow cytometric method (reference value: 83.4%)
# Type: functional
# Conditions: not given
row,Compound,Activity [%]
1,C=C1C(=O)Oc2c(OC)cccc2[C@H]1[C@@H]1CCCCC1=O (relative stereo),64

# Tested on: HL-60
# Assay: Cytotoxicity against human HL60 cells after 48 hrs by MTT assay
# Type: functional, cell-based
# Conditions: HL-60, 48 h
row,Compound,IC50 [µM]
1,C=C1C(=O)Oc2ccccc2[C@H]1[C@@H]1CCCC1=O,578
2,C=C1C(=O)Oc2ccccc2[C@H]1[C@@H]1CCCCC1=O,629
3,C=C1C(=O)Oc2c(OC)cccc2C1CC(C)=O (configuration not stated),90.9
4,C=C1C(=O)Oc2ccccc2[C@H]1[C@@H]1Cc2ccccc2C1=O,247
5,C=C1C(=O)Oc2ccc(Cl)cc2C1CC(C)=O (configuration not stated),289
6,C=C1C(=O)Oc2ccccc2C1CC(C)=O (configuration not stated),84.1
7,C=C1C(=O)Oc2c(OC)cccc2[C@H]1[C@@H]1CCc2cc(OC)ccc2C1=O (relative stereo),3.61
8,C=C1C(=O)Oc2ccc(Cl)cc2[C@H]1[C@@H]1Cc2ccccc2C1=O (relative stereo),7.48
9,C=C1C(=O)Oc2c(OC)cccc2[C@H]1[C@@H]1CCCCC1=O (relative stereo),6.06
10,C=C1C(=O)Oc2ccc(Cl)cc2[C@H]1[C@@H]1CCc2cc(OC)ccc2C1=O (relative stereo),5.67
11,C=C1C(=O)Oc2ccc(Cl)cc2[C@H]1[C@@H]1CCCC1=O (relative stereo),514
12,C=C1C(=O)Oc2c(OC)cccc2[C@H]1[C@@H]1CCCC1=O (relative stereo),711
13,C=C1C(=O)Oc2ccccc2[C@H]1[C@@H]1Cc2cc(OC)ccc2C1=O (relative stereo),5.48
14,C=C1C(=O)Oc2ccccc2[C@H]1[C@@H]1CCc2cc(OC)ccc2C1=O (relative stereo),5.29
15,C=C1C(=O)Oc2c(OC)cccc2[C@H]1[C@@H]1Cc2ccccc2C1=O (relative stereo),5.56
16,C=C1C(=O)Oc2ccccc2[C@H]1[C@@H]1COCCC1=O (relative stereo),42.7
17,C=C1C(=O)Oc2ccc(Cl)cc2[C@H]1[C@@H]1CCCCC1=O (relative stereo),84.9

# Tested on: NALM-6
# Assay: Cytotoxicity against human NALM6 cells after 48 hrs by MTT assay
# Type: functional, cell-based
# Conditions: NALM-6, 48 h
row,Compound,IC50 [µM]
1,C=C1C(=O)Oc2ccccc2[C@H]1[C@@H]1CCCC1=O,488
2,C=C1C(=O)Oc2ccccc2[C@H]1[C@@H]1CCCCC1=O,85.6
3,C=C1C(=O)Oc2c(OC)cccc2C1CC(C)=O (configuration not stated),73.2
4,C=C1C(=O)Oc2ccccc2[C@H]1[C@@H]1Cc2ccccc2C1=O,705
5,C=C1C(=O)Oc2ccc(Cl)cc2C1CC(C)=O (configuration not stated),427
6,C=C1C(=O)Oc2ccccc2C1CC(C)=O (configuration not stated),94.4
7,C=C1C(=O)Oc2c(OC)cccc2[C@H]1[C@@H]1CCc2cc(OC)ccc2C1=O (relative stereo),0.87
8,C=C1C(=O)Oc2ccc(Cl)cc2[C@H]1[C@@H]1Cc2ccccc2C1=O (relative stereo),6.56
9,C=C1C(=O)Oc2c(OC)cccc2[C@H]1[C@@H]1CCCCC1=O (relative stereo),4.14
10,C=C1C(=O)Oc2ccc(Cl)cc2[C@H]1[C@@H]1CCc2cc(OC)ccc2C1=O (relative stereo),1.59
11,C=C1C(=O)Oc2ccc(Cl)cc2[C@H]1[C@@H]1CCCC1=O (relative stereo),> 1000
12,C=C1C(=O)Oc2c(OC)cccc2[C@H]1[C@@H]1CCCC1=O (relative stereo),784
13,C=C1C(=O)Oc2ccccc2[C@H]1[C@@H]1Cc2cc(OC)ccc2C1=O (relative stereo),0.65
14,C=C1C(=O)Oc2ccccc2[C@H]1[C@@H]1CCc2cc(OC)ccc2C1=O (relative stereo),0.51
15,C=C1C(=O)Oc2c(OC)cccc2[C@H]1[C@@H]1Cc2ccccc2C1=O (relative stereo),4.66
16,C=C1C(=O)Oc2ccccc2[C@H]1[C@@H]1COCCC1=O (relative stereo),13.6
17,C=C1C(=O)Oc2ccc(Cl)cc2[C@H]1[C@@H]1CCCCC1=O (relative stereo),94.6

# Tested on: MCF7
# Assay: Cytotoxicity against human MCF7 cells after 48 hrs by MTT assay
# Type: functional, cell-based
# Conditions: MCF7, 48 h
row,Compound,IC50 [µM]
1,C=C1C(=O)Oc2ccccc2[C@H]1[C@@H]1CCCC1=O,14.7
2,C=C1C(=O)Oc2ccccc2[C@H]1[C@@H]1CCCCC1=O,8
3,C=C1C(=O)Oc2c(OC)cccc2C1CC(C)=O (configuration not stated),10.5
4,C=C1C(=O)Oc2ccccc2[C@H]1[C@@H]1Cc2ccccc2C1=O,17
5,C=C1C(=O)Oc2ccc(Cl)cc2C1CC(C)=O (configuration not stated),16.3
6,C=C1C(=O)Oc2ccccc2C1CC(C)=O (configuration not stated),11.5
7,C=C1C(=O)Oc2c(OC)cccc2[C@H]1[C@@H]1CCc2cc(OC)ccc2C1=O (relative stereo),17.5
8,C=C1C(=O)Oc2ccc(Cl)cc2[C@H]1[C@@H]1Cc2ccccc2C1=O (relative stereo),15.2
9,C=C1C(=O)Oc2c(OC)cccc2[C@H]1[C@@H]1CCCCC1=O (relative stereo),8.75
10,C=C1C(=O)Oc2ccc(Cl)cc2[C@H]1[C@@H]1CCc2cc(OC)ccc2C1=O (relative stereo),77.5
11,C=C1C(=O)Oc2ccc(Cl)cc2[C@H]1[C@@H]1CCCC1=O (relative stereo),23
12,C=C1C(=O)Oc2c(OC)cccc2[C@H]1[C@@H]1CCCC1=O (relative stereo),15
13,C=C1C(=O)Oc2ccccc2[C@H]1[C@@H]1Cc2cc(OC)ccc2C1=O (relative stereo),77.6
14,C=C1C(=O)Oc2ccccc2[C@H]1[C@@H]1CCc2cc(OC)ccc2C1=O (relative stereo),76.5
15,C=C1C(=O)Oc2c(OC)cccc2[C@H]1[C@@H]1Cc2ccccc2C1=O (relative stereo),8.57
16,C=C1C(=O)Oc2ccccc2[C@H]1[C@@H]1COCCC1=O (relative stereo),26.3
17,C=C1C(=O)Oc2ccc(Cl)cc2[C@H]1[C@@H]1CCCCC1=O (relative stereo),3.45

# Tested on: HUVEC
# Assay: Cytotoxicity against human HUVEC cells after 48 hrs by MTT assay
# Type: cell-based
# Conditions: not given
row,Compound,IC50 [µM]
1,C=C1C(=O)Oc2c(OC)cccc2[C@H]1[C@@H]1CCc2cc(OC)ccc2C1=O (relative stereo),4.87
2,C=C1C(=O)Oc2c(OC)cccc2[C@H]1[C@@H]1CCCCC1=O (relative stereo),4.7

# Tested on: MCF-10A
# Assay: Cytotoxicity against human MCF10A cells after 48 hrs by MTT assay
# Type: cell-based
# Conditions: not given
row,Compound,IC50 [µM]
1,C=C1C(=O)Oc2c(OC)cccc2[C@H]1[C@@H]1CCc2cc(OC)ccc2C1=O (relative stereo),13.6
2,C=C1C(=O)Oc2c(OC)cccc2[C@H]1[C@@H]1CCCCC1=O (relative stereo),16.4

# Tested on: MCF7
# Assay: Induction of apoptosis in human MCF7 cells assessed as early apoptotic cells at 12.76 +/- 0.46 uM after 24 hrs by annexin V-FITC/propidium iodide staining-based flow cytometric method (reference value: 1.7%)
# Type: functional
# Conditions: not given
row,Compound,Activity [%]
1,C=C1C(=O)Oc2c(OC)cccc2[C@H]1[C@@H]1CCCCC1=O (relative stereo),2.2

# Tested on: MCF7
# Assay: Induction of apoptosis in human MCF7 cells assessed as late apoptotic cells at 12.76 +/- 0.46 uM after 24 hrs by annexin V-FITC/propidium iodide staining-based flow cytometric method (reference value: 10.1 +/- 0.2%)
# Type: functional
# Conditions: not given
row,Compound,Activity [%]
1,C=C1C(=O)Oc2c(OC)cccc2[C@H]1[C@@H]1CCCCC1=O (relative stereo),28.7

# Tested on: MCF7
# Assay: Induction of apoptosis in human MCF7 cells assessed as necrotic cells at 12.76 +/- 0.46 uM after 24 hrs by annexin V-FITC/propidium iodide staining-based flow cytometric method (reference value: 4.1%)
# Type: functional
# Conditions: not given
row,Compound,Activity [%]
1,C=C1C(=O)Oc2c(OC)cccc2[C@H]1[C@@H]1CCCCC1=O (relative stereo),5

# Tested on: MCF7
# Assay: Induction of apoptosis in human MCF7 cells assessed as upregulation of caspase-3 mRNA level at 12.76 +/- 0.46 uM by quantitative real-time PCR method
# Type: functional, cell-based
# Conditions: not given
row,Compound,Activity
1,C=C1C(=O)Oc2c(OC)cccc2[C@H]1[C@@H]1CCCCC1=O (relative stereo),Active

# Tested on: MCF7
# Assay: Induction of apoptosis in human MCF7 cells assessed as upregulation of Bax mRNA level at 12.76 +/- 0.46 uM by quantitative real-time PCR method
# Type: functional, cell-based
# Conditions: not given
row,Compound,Activity
1,C=C1C(=O)Oc2c(OC)cccc2[C@H]1[C@@H]1CCCCC1=O (relative stereo),Active

# Tested on: MCF7
# Assay: Induction of apoptosis in human MCF7 cells assessed as downregulation of Bcl-2 mRNA level at 12.76 +/- 0.46 uM by quantitative real-time PCR method
# Type: functional, cell-based
# Conditions: not given
row,Compound,Activity
1,C=C1C(=O)Oc2c(OC)cccc2[C@H]1[C@@H]1CCCCC1=O (relative stereo),Active

# Tested on: MCF7
# Assay: Cell cycle arrest in human MCF7 cells assessed as accumulation at sub G0/G1 phase at 12.76 +/- 0.46 uM after 24 hrs by propidium iodide staining-based flow cytometric analysis (reference value: 1.3%)
# Type: functional
# Conditions: not given
row,Compound,Activity [%]
1,C=C1C(=O)Oc2c(OC)cccc2[C@H]1[C@@H]1CCCCC1=O (relative stereo),17.9

# Tested on: MCF7
# Assay: Disruption of mitochondrial membrane potential in human MCF7 cells assessed as collapse of the mitochondrial membrane potential at 12.76 +/- 0.46 uM after 24 hrs by JC10 staining-based flow cytometric method (reference value: 23.9%)
# Type: functional
# Conditions: not given
row,Compound,Activity [%]
1,C=C1C(=O)Oc2c(OC)cccc2[C@H]1[C@@H]1CCCCC1=O (relative stereo),52.5

# Tested on: MCF7
# Assay: Disruption of mitochondrial membrane potential in human MCF7 cells assessed as intact mitochondrial membrane at 12.76 +/- 0.46 uM after 24 hrs by JC10 staining-based flow cytometric method (reference value: 76.1%)
# Type: functional
# Conditions: not given
row,Compound,Activity [%]
1,C=C1C(=O)Oc2c(OC)cccc2[C@H]1[C@@H]1CCCCC1=O (relative stereo),47.5

# Tested on: MCF7
# Assay: Cell cycle arrest in human MCF7 cells assessed as accumulation at G0/G1 phase at 12.76 +/- 0.46 uM after 24 hrs by propidium iodide staining-based flow cytometric analysis (reference value: 52.2%)
# Type: functional
# Conditions: not given
row,Compound,Activity [%]
1,C=C1C(=O)Oc2c(OC)cccc2[C@H]1[C@@H]1CCCCC1=O (relative stereo),36

# Tested on: MCF7
# Assay: Cell cycle arrest in human MCF7 cells assessed as accumulation at S phase at 12.76 +/- 0.46 uM after 24 hrs by propidium iodide staining-based flow cytometric analysis (reference value: 25.9%)
# Type: functional
# Conditions: not given
row,Compound,Activity [%]
1,C=C1C(=O)Oc2c(OC)cccc2[C@H]1[C@@H]1CCCCC1=O (relative stereo),29.7

# Tested on: MCF7
# Assay: Cell cycle arrest in human MCF7 cells assessed as accumulation at G2/M phase at 12.76 +/- 0.46 uM after 24 hrs by propidium iodide staining-based flow cytometric analysis (reference value: 20.3%)
# Type: functional
# Conditions: not given
row,Compound,Activity [%]
1,C=C1C(=O)Oc2c(OC)cccc2[C@H]1[C@@H]1CCCCC1=O (relative stereo),16.5

# Tested on: MCF7
# Assay: Cytotoxicity against human MCF7 cells after 24 hrs by MTT assay
# Type: functional, cell-based
# Conditions: MCF7, 24 h
row,Compound,IC50 [µM]
1,C=C1C(=O)Oc2c(OC)cccc2[C@H]1[C@@H]1CCCCC1=O (relative stereo),12.8

# Tested on: not listed separately
# Assay: Selectivity index, ratio of IC50 for human MCF10A cells to IC50 for human MCF7 cells
# Type: functional
# Conditions: not given
row,Compound,Ratio IC50
1,C=C1C(=O)Oc2c(OC)cccc2[C@H]1[C@@H]1CCCCC1=O (relative stereo),2

# Tested on: not listed separately
# Assay: Selectivity index, ratio of IC50 for human MCF10A cells to IC50 for human NALM6 cells
# Type: functional
# Conditions: not given
row,Compound,Ratio IC50
1,C=C1C(=O)Oc2c(OC)cccc2[C@H]1[C@@H]1CCCCC1=O (relative stereo),5

# Tested on: not listed separately
# Assay: Selectivity index, ratio of IC50 for human MCF7 cells to IC50 for human MCF10A cells
# Type: functional
# Conditions: not given
row,Compound,Ratio IC50
1,C=C1C(=O)Oc2c(OC)cccc2[C@H]1[C@@H]1CCCCC1=O (relative stereo),5
